In patent publication US11253592B2, “Water-soluble compounds with aggregation-induced emission characteristics” (THE HONG KONG UNIVERSITY OF SCIENCE AND TECHNOLOGY, priority 2017, dated 2022):

What was measured:
[1] = system: HeLa cells; test: Photostability under continuous laser irradiation in stained cells; assay type: cell-based; conditions: 15 min continuous laser irradiation, λex 488 nm
Protocol: For photostability studies, TTVP-labelled HeLa cells were imaged by a confocal microscope (Zeiss laser scanning confocal microscope LSM7 DUO) using ZEN 2009 software (Carl Zeiss). Conditions: for TTVP, excitation wavelength: 488 nm; for DiO, excitation wavelength: 488 nm (5% laser power).
The specificity of TTVP to plasma membrane was evaluated by co-staining with DiO, which is a commercially available bioprobe for plasma membrane. In this co-localization experiment, after incubating HeLa cells with DiO for 10 min, TTVP was added into the culture followed by culture shaking for a few seconds at room temperature. In order to accommodate the staining protocol of DiO, postwashing after cell staining was carried out. As shown in FIGS. 9A-9H, TTVP can selectively accumulate in the plasma membrane and emit strong red fluorescence. The well-merged images of TTVP and DiO indicate the high specificity of the compounds to the plasma membrane, and the Pearson's correlation coefficient is determined to be 89%. To assess the photostability of TTVP and DiO, continuous excitation and sequential scanning with confocal microscope were utilized.

[2] = system: plasma membrane of living HeLa cells; test: Plasma membrane cell imaging by confocal microscopy; assay type: cell-based
Protocol: (§1) For cell imaging, cells were grown in a 35 mm Petri dish with a coverslip at 37° C. The live cells were incubated with a certain dye at a certain concentration for a certain time. After adding TTVP (500 nM), the Petri dish was shaken for a few seconds at room temperature, then the coverslip was removed. The TTVP-labelled cells were mounted and imaged using a laser scanning confocal microscope (LSM7 DUO) at 512 nm with 5% laser power (the scanning rate was 22.4 s per frame). The emission filter was 600-744 nm.
As a water-soluble NIR-emissive AIEgen, TTVP maintains an “off” state in an aqueous environment. As such, TTVP can serve as a “light-up” probe for bioimaging with minimal background interference from both free dyes and bio-substrate autofluorescence. In preliminary bioimaging experiments, cell imaging studies were conducted using HeLa cells as a cell model, and incubating 500 nM of TTVP for 10 min. […] The influence of incubation period was then investigated by utilizing a wash-free procedure with different staining times. […] The plasma membrane-staining ability of TTVP can be mainly attributed to its good hydrophilicity, which impedes the permeation of TTVP passing through the hydrophobic region of phospholipid bilayers. It is believed that the emitting moiety of TTVP is embedded within the hydrophobic region with low polarity, evidently giving fluorescent emission upon irradiation according to the restriction of intramolecular motions (RIM) mechanism of the AIE process (FIG. 6G). […] Additionally, ultrafast staining could result from the excellent monodispersity of TTVP in culture media of cells.

[3] = Water solubility; assay type: physicochemical
Source text: (§2) TTVP benefits from its positively charged amine and pyridinium salt having hydrophilic characteristic, as well as the small size of the hydrophobic moiety. […] The relatively long absorption wavelength can be attributed to its small HOMO-LOMO energy gap, which is caused by the strong electron donating-accepting interaction of the emitting center (FIGS. 3A-3C).

[4] = ROS generation with H2DCF-DA indicator under white light; conditions: 10 μM TTVP, 5 μM H2DCF-DA in PBS, white light 10 mW, within 60 s
Source text: The strong absorption of TTVP in the visible light region permits utilization of visible light as the excitation light source for PDT processes. Visible light causes less damage to biological systems than UV light. The ROS generation efficiency of TTVP was initially determined by the use of H2DCF-DA as an indicator, which emits fluorescence with a “turn on” process triggered by ROS. As depicted in FIG. 11A, TTVP or H2DCF-DA alone was non-emissive or weekly emissive, and each fluorescence intensity remained almost constant within 60 s white light irradiation. […] The efficient ROS generation of TTVP could be attributed to both its small singlet-triplet energy gap (0.47 eV) and excellent monodispersity. The former favors the improvement of the yield of the triplet excited state, and the latter can enlarge contact area between TTVP and oxygen.

[5] = system: HeLa cells; test: Flow cytometry Annexin V-FITC/PI double staining for apoptosis and necrosis; assay type: cell-based; conditions: 500 nM
Protocol: Effective ROS generation of the present compounds in PDT applications was quantitatively evaluated on HeLa cells by a standard MTT assay. A dose-dependent toxicity was determined in both the absence and presence of white light irradiation. […] In comparison, HeLa cells retained 90% viability when they were incubated with 1 μM of TTVP in dark conditions. Furthermore, flow cytometric analysis using Annexin V-FITC/propidium iodide (PI) double staining was utilized to determine cell apoptosis (FIGS. 11C and 11D). […] It is worth noting that continuous light irradiation with strong power (around 18.5 times higher than that for cell imaging depicted in FIGS. 6A-6H and FIGS. 8A-8H) led to some changes of cells, for instance, TTVP can gradually enter the cells (FIGS. 11E-11I); the cell membrane morphology changed, and the formation of blebs on the plasma membrane was clearly observed, which is a sign of cell death. Those changes can be attributed to the fact that the ROS generated from TTVP considerably disrupts the rigidity and permeability of plasma membrane, and induces cancer cell death. FIGS. 12A, 12B, 12C, 12D, and 12E depict bright-field confocal images of HeLa cell stained with TTVP upon the increase of irradiation time. λex: 488 nm (20% laser power, 0.925 μW).

[6] = Photophysical (optical) properties of TTVP; assay type: physicochemical
Protocol: H spectra were measured on Bruker ARX 400 NMR spectrometers using CD3OD as the deuterated solvent. High-resolution mass spectra (HRMS) were recorded on a Finnegan MAT TSQ 7000 Mass Spectrometer System operating in a MALDI-TOF mode. UV absorption spectra were taken on a Milton Ray Spectronic 3000 array spectrophotometer. Steady-state fluorescence spectra were recorded on a Perkin Elmer LS 55 spectrometer. Fluorescence images were collected on Olympus BX 41 fluorescence microscope. Laser confocal scanning microscope images were collected on Zeiss laser scanning confocal microscope (LSM7 DUO) and analyzed using ZEN 2009 software (Carl Zeiss).
as §2
(§3) Dynamic light scattering analysis (DLS) and transmission electron microscope (TEM) measurements were performed to confirm the formation of aggregates upon the addition of THF into the TTVP aqueous solution. […] In the solid state, TTVP emitted at 705 nm with 2.7% of quantum yield and 0.92 ns of lifetime (FIGS. 4-5, Table 1).

[7] = system: HeLa cells; test: MTT cytotoxicity under white light irradiation (PDT); assay type: cell-based; conditions: white light irradiation (around 10 mW) 10 min
Protocol: For cytotoxicity studies relating to cytotoxicity of the present compounds to cancer cells under light irradiation, HeLa cells were seeded in 96-well plates (Costar, IL, USA) at a density of 6000-8000 cells/well. After overnight culturing, medium in each well were replaced by 100 μL fresh medium containing different concentrations of TTVP. After incubation for 3 s, plates containing HeLa cells were exposed to white light (around 10 mW) for 10 min, and another array of plates with cells were kept in dark as control. Then the plates were subjected to the same treatment as the biocompatibility test.
(§4) Effective ROS generation of the present compounds in PDT applications was quantitatively evaluated on HeLa cells by a standard MTT assay. A dose-dependent toxicity was determined in both the absence and presence of white light irradiation. […] In comparison, HeLa cells retained 90% viability when they were incubated with 1 μM of TTVP in dark conditions. Furthermore, flow cytometric analysis using Annexin V-FITC/propidium iodide (PI) double staining was utilized to determine cell apoptosis (FIGS. 11C and 11D). […]

[8] = system: HeLa cells; test: MTT cytotoxicity in dark conditions (biocompatibility); assay type: cell-based
Protocol: For cytotoxicity studies relating to biocompatibility of the present compounds to Hela cells, MTT assays were used to evaluate the cytotoxicity of the presented AIEgens. Cells were seeded in 96-well plates (Costar, IL, USA) at a density of 6000-8000 cells/well. After overnight culturing, medium in each well were replaced by 100 μL fresh medium containing different concentrations of TTVP. 24 hours later, 10 μL MTT solution (5 mg/mL in PBS) was added into each well. After 4 hours of incubation, 100 μL SDS-HCl aqueous solution (10% SDS and 0.01 M HCl) was added to each well. After incubation for 4 hours, the absorption of each well at 595 nm was recorded via a plate reader (Perkin-Elmer Victor3™). Each trial was performed with 6 wells parallel.
as §4

[9] = DLS analysis of nanoaggregates in water/THF; assay type: physicochemical; conditions: suspension with 90% fraction of THF
Protocol: as §3

[10] = system: HCC827 cells; test: Ultrafast wash-free plasma membrane imaging; assay type: cell-based; conditions: 500 nM, around 3 s
Protocol: as §1
(§5) Encouraged by the distinct advantages of TTVP for membrane-specific imaging, this ultrafast staining and wash-free cellular imaging protocol was further employed for staining other cell lines, including 293T, HCC827, HCT116, and MDCK2.

[11] = system: HCT116 cells; test: Ultrafast wash-free plasma membrane imaging; assay type: cell-based; conditions: 500 nM, around 3 s
Protocol: as §1, §5

[12] = system: 293T cells; test: Ultrafast wash-free plasma membrane imaging; assay type: cell-based; conditions: 500 nM, around 3 s
Protocol: as §1, §5

[13] = system: MDCK2 cells; test: Ultrafast wash-free plasma membrane imaging; assay type: cell-based; conditions: 500 nM, around 3 s
Protocol: as §1, §5

Question: For `CCCCCCCCCCCCCCCCCCN1/C(=C\C=C\c2oc3ccccc3[n+]2CCCCCCCCCCCCCCCCCC)Oc2ccccc21.[O-][Cl+3]([O-])([O-])[O-]` [DiO, reference compound], which “change of emission intensity on irradiation (photostability)” value [1] is on record?
Answer: fluorescence loss of DiO was very obvious

Question: For `C[N+](C)(C)CCC[n+]1ccc(/C=C/c2ccc(-c3ccc(N(c4ccccc4)c4ccccc4)cc3)s2)cc1` [TTVP], which plasma membrane visualization ([2]; 500 nM, 10 min incubation, with or without washing) is on record?
Answer: clearly visualized with excellent image contrast

Question: What about the plasma membrane staining ([2]; 500 nM, shaking a few seconds at room temperature, wash-free) of the same molecule?
Answer: lit up significantly

Question: What about the “cellular localization after long staining” value ([2]; 500 nM, staining for 6 hours) of the same molecule?
Answer: A majority of TTVP entered the cells

Question: What about the plasma membrane visualization ([2]; 500 nM, staining time 4 h) of the same molecule?
Answer: still be clearly visualized

Question: And the “maximum emission of stained living cells” value ([2]; living HeLa cells stained with TTVP)?
Answer: 623 nm

Question: And the water solubility [3]?
Answer: good water solubility

Question: What about the “enhancement of H2DCF-DA emission intensity (ROS generation)” value [4] of the same molecule?
Answer: 87 fold

Question: What about the “cell necrosis on light irradiation” value [5] of the same molecule?
Answer: caused cancer cell necrosis in a short period of time

Question: What about the “λem (nm) Aggr, maximum emission in aggregated state” value ([6]; aggregated state, water/THF mixture) of the same molecule?
Answer: 708 nm

Question: What about the “ε, molar extinction coefficient” value ([6]; aqueous solution, at 515 nm) of the same molecule?
Answer: 33517 M⁻¹ cm⁻¹

Question: What about the “λabs (nm), absorption maximum” value ([6]; aqueous solutions) of the same molecule?
Answer: 515 nm

Question: What about the “λem (nm) Solid, emission maximum in solid state” value ([6]; solid state) of the same molecule?
Answer: 705 nm

Question: And the “τ, fluorescence lifetime” value ([6]; solid state, ambient conditions)?
Answer: 0.92 ns

Question: And the “ΦF, fluorescence quantum yield” value ([6]; solid state, calibrated integrating sphere)?
Answer: 2.7%

Question: And the cell death ([7]; 1 μM)?
Answer: almost complete cell death

Question: And the viability at 0.5 µM ([7]; Homo sapiens, HeLa, light or radiation study, 10 min, 500 nM, read-out: cell viability)?
Answer: 15%

Question: And the “cytotoxicity in dark conditions” value [8]?
Answer: low cytotoxicity

Question: What about the cell viability ([8]; 1 μM) of the same molecule?
Answer: 90%

Question: What about the “average hydrodynamic diameter of nanoaggregates” value [9] of the same molecule?
Answer: around 43 nm

Question: What about the polydispersity index [9] of the same molecule?
Answer: 0.13

Question: What about the plasma membrane visualization [10] of the same molecule?
Answer: clearly visualized

Question: And the plasma membrane visualization [11]?
Answer: clearly visualized

Question: What about the plasma membrane visualization [12] of the same molecule?
Answer: clearly visualized

Question: What about the plasma membrane visualization [13] of the same molecule?
Answer: clearly visualized

Question: What about the “change of emission intensity on irradiation (photostability)” value [1] of the same molecule?
Answer: slightly decreased
